Data taken from US12344610B2, “APOL1 inhibitors and methods of use” (Maze Therapeutics, Inc., priority 2022, dated 2025).

Tests used:
[1] = test system: Trypanosoma brucei Lister 427 VSG221 with APOL1 G0 recombinant protein; experiment: APOL1 G0 trypanosome cell rescue assay (Example B5); assay type: cell-based; details: Trypanosoma brucei, 20 h, read-out: APOL1 G0 Trypanosome Rescue EC50, Trypanosoma brucei Lister 427 VSG221 with APOL1 G0 recombinant protein, 20 hours, CellTiter-Glo; geometric mean of at least 2 assay runs; † = single assay run
How it was run: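 Recombinant APOL1 protein, dispensed from a 2 μg/mL stock, and 250 T. brucei per well were co-incubated with test compound (0.4% DMSO) for 20 h. Viability: CellTiter-Glo luminescence.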

[2] = test system: HEK293 clonal cell line overexpressing APOL1 G1; experiment: APOL1 G1 HEK293 cell rescue assay (Example B3); assay type: cell-based; details: Homo sapiens, HEK293, HEK293 clonal line overexpressing APOL1 G1; geometric mean of at least 2 runs; † = single run; ¥ = concentration at 50% rescue estimated (no sigmoidal curve)
How it was run: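 Rescue of cell death caused by APOL1 G1 overexpression was measured in a clonal HEK293 line. Compounds were tested in duplicate on one plate, and EC50s were geometric means across at least two runs on different days. Some values are estimated 50%-rescue concentrations where curve fitting failed.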

With `CN1C(=O)CCc2cc(OCCN3CCC4(CC3)C(=O)Nc3ccc(C#N)cc34)cnc21` [Compound 79, 1′-{2-[(8-methyl-7-oxo-5,6,7,8-tetrahydro-1,8-naphthyridin-3-yl)oxy]ethyl}-2-oxo-1,2-dihydrospiro[indole-3,4′-piperidine]-5-carbonitrile] the EC50 [1] was 846 nM and the EC50 [2] was 533 nM.

With `CC(C)[C@]1(O)C[C@@H](N2C(=O)CCc3cc(OCCN4CCC5(CC4)C(=O)Nc4ccc(Cl)cc45)cnc32)C1` [Compound 317, 5-chloro-1′-[2-({7-oxo-8-[(cis)-3-hydroxy-3-(propan-2-yl)cyclobutyl]-5,6,7,8-tetrahydro-1,8-naphthyridin-3-yl}oxy)ethyl]-1,2-dihydrospiro[indole-3,4′-piperidin]-2-one] the EC50 [1] was 33 nM and the EC50 [2] was 45.6 nM.

`C[C@]1(O)C[C@@H](n2c(=O)ccc3cc(OCCN4CCC5(CC4)C(=O)Nc4ccc(Cl)cc45)cnc32)C1` [Compound 323, 5-chloro-1′-[2-({7-oxo-8-[(cis)-3-hydroxy-3-methylcyclobutyl]-7,8-dihydro-1,8-naphthyridin-3-yl}oxy)ethyl]-1,2-dihydrospiro[indole-3,4′-piperidin]-2-one] was tested, and the EC50 [1] was 32 nM and the EC50 [2] was 36.4 nM.

Work on `C[C@]1(O)C[C@@H](n2c(=O)ccc3cc(OCCN4CCC5(CC4)C(=O)Nc4ccc(C(F)F)cc45)cnc32)C1` [Compound 324, 5-(difluoromethyl)-1′-[2-({7-oxo-8-[(cis)-3-hydroxy-3-methylcyclobutyl]-7,8-dihydro-1,8-naphthyridin-3-yl}oxy)ethyl]-1,2-dihydrospiro[indole-3,4′-piperidin]-2-one] yielded an EC50 [1] of 28.9 nM and an EC50 [2] of 40.8 nM.

`O=C1CCc2cc(OCCN3CCC4(CC3)C(=O)Nc3ccc(Cl)cc34)cnc2N1C1CC(CO)C1` (stereo not shown) [Compound 326, 5-chloro-1′-[2-({8-[3-(hydroxymethyl)cyclobutyl]-7-oxo-5,6,7,8-tetrahydro-1,8-naphthyridin-3-yl}oxy)ethyl]-1,2-dihydrospiro[indole-3,4′-piperidin]-2-one] gave an EC50 [1] of 88.6 nM and an EC50 [2] of 104 nM.

`CC1(O)CC(CN2C(=O)CCc3cc(OCCN4CCC5(CC4)C(=O)Nc4ccc(Cl)cc45)cnc32)C1` (stereo not shown) [Compound 327, 5-chloro-1′-[2-({8-[(3-hydroxy-3-methylcyclobutyl)methyl]-7-oxo-5,6,7,8-tetrahydro-1,8-naphthyridin-3-yl}oxy)ethyl]-1,2-dihydrospiro[indole-3,4′-piperidin]-2-one] showed an EC50 [1] of 39.9 nM and an EC50 [2] of 84.4 nM.

`C[C@]1(O)C[C@@H](n2c(=O)ccc3cc(OCCN4CCC5(CC4)C(=O)Nc4ccc(OC(F)F)cc45)cnc32)C1` [Compound 328, 5-(difluoromethoxy)-1′-[2-({7-oxo-8-[(cis)-3-hydroxy-3-methylcyclobutyl]-7,8-dihydro-1,8-naphthyridin-3-yl}oxy)ethyl]-1,2-dihydrospiro[indole-3,4′-piperidin]-2-one] showed an EC50 [1] of 79.9 nM and an EC50 [2] of 98.2 nM.

In the case of `O=C1Nc2ccc(Cl)cc2C12CCN(CCOc1cnc(C3(CO)CC3)nc1)CC2` [Compound 333, 5-chloro-1′-[2-({2-[1-(hydroxymethyl)cyclopropyl]pyrimidin-5-yl}oxy)ethyl]-1,2-dihydrospiro[indole-3,4′-piperidin]-2-one], the EC50 [1] is reported as 152 nM and the EC50 [2] is reported as 98.6 nM.

`CP(C)(=O)C1(c2ccc(OCCN3CCC4(CC3)C(=O)Nc3ccc(Cl)cc34)cc2)CC1` [Compound 343, 5-chloro-1′-(2-{4-[1-(dimethylphosphoryl)cyclopropyl]phenoxy}ethyl)-1,2-dihydrospiro[indole-3,4′-piperidin]-2-one] was tested, and the EC50 [1] was 174 nM and the EC50 [2] was 431 nM.

For `C[C@]1(O)C[C@@H](N2C(=O)Cc3cc(OCCN4CCC5(CC4)C(=O)Nc4ccc(Cl)cc45)cnc32)C1` [Compound 345, 5-chloro-1′-[2-({2-oxo-1-[(cis)-3-hydroxy-3-methylcyclobutyl]-1H,2H,3H-pyrrolo[2,3-b]pyridin-5-yl}oxy)ethyl]-1,2-dihydrospiro[indole-3,4′-piperidin]-2-one], the EC50 [1] was 161 nM and the EC50 [2] was 79 nM.

For `C[C@]1(O)C[C@@H](N2C(=O)Cc3cc(OCCN4CCC5(CC4)C(=O)Nc4ccc(C(F)F)cc45)cnc32)C1` [Compound 346, 5-(difluoromethyl)-1′-[2-({2-oxo-1-[(cis)-3-hydroxy-3-methylcyclobutyl]-1H,2H,3H-pyrrolo[2,3-b]pyridin-5-yl]oxy)ethyl]-1,2-dihydrospiro[indole-3,4′-piperidin]-2-one], the EC50 [1] was 83.6 nM and the EC50 [2] was 83.7 nM.

`C[C@]1(O)C[C@@H](n2ccc3cc(OCCN4CCC5(CC4)C(=O)Nc4ccc(Cl)cc45)cnc32)C1` [Compound 349, 5-chloro-1′-[2-({1-[(cis)-3-hydroxy-3-methylcyclobutyl]-1H-pyrrolo[2,3-b]pyridin-5-yl}oxy)ethyl]-1,2-dihydrospiro[indole-3,4′-piperidin]-2-one] gave an EC50 [1] of 64.6 nM and an EC50 [2] of 73.5 nM.

In the case of `C[C@]1(O)C[C@@H](n2cnc3cc(OCCN4CCC5(CC4)C(=O)Nc4ccc(Cl)cc45)cc(C(F)(F)F)c32)C1` [Compound 352, 5-chloro-1′-[2-({1-[(cis)-3-hydroxy-3-methylcyclobutyl]-7-(trifluoromethyl)-1H-1,3-benzodiazol-5-yl}oxy)ethyl]-1,2-dihydrospiro[indole-3,4′-piperidin]-2-one], the EC50 [1] is reported as 18.7 nM and the EC50 [2] is reported as 9.95 nM.

`C[C@]1(O)C[C@@H](N2C(=O)NCc3cc(OCCN4CCC5(CC4)C(=O)Nc4ccc(Cl)cc45)cnc32)C1` [Compound 356, 5-chloro-1′-[2-({2-oxo-1-[(cis)-3-hydroxy-3-methylcyclobutyl]-1H,2H,3H,4H-pyrido[2,3-d]pyrimidin-6-yl}oxy)ethyl]-1,2-dihydrospiro[indole-3,4′-piperidin]-2-one] showed an EC50 [1] of 101 nM and an EC50 [2] of 162 nM.

In the case of `CC(C)(O)c1ncc(OCCN2CCC3(CC2)C(=O)Nc2ccc(Cl)cc23)cc1C(F)(F)F` [Compound 371, 5-chloro-1′-(2-{[6-(2-hydroxypropan-2-yl)-5-(trifluoromethyl)pyridin-3-yl]oxy}ethyl)-1,2-dihydrospiro[indole-3,4′-piperidin]-2-one], the EC50 [1] is reported as 18.8 nM and the EC50 [2] is reported as 28.8 nM.

`CCC1(O)CN(c2ncc(OCCN3CCC4(CC3)C(=O)Nc3ccc(Cl)cc34)cn2)C1` [Compound 397, 5-chloro-1′-(2-{[2-(3-ethyl-3-hydroxyazetidin-1-yl)pyrinlidin-5-yl]oxy}ethyl)-1,2-dihydrospiro[indole-3,4′-piperidin]-2-one] gave an EC50 [1] of 226 nM and an EC50 [2] of 105 nM.

`C[C@]1(O)C[C@@H](n2ccc3cc(OCCN4CCC5(CC4)C(=O)Nc4ccc(C#N)cc45)cnc32)C1` [Compound 410, 2-oxo-1′-[2-({1-[(cis)-3-hydroxy-3-methylcyclobutyl]-1H-pyrrolo[2,3-b]pyridin-5-yl}oxy)ethyl]-1,2-dihydrospiro[indole-3,4′-piperidine]-5-carbonitrile] was tested, and the EC50 [1] was 206 nM and the EC50 [2] was 93.3 nM.

In the case of `[2H]C([2H])(Oc1cnc2c(c1)CCC(=O)N2[C@H]1C[C@@](C)(O)C1)C([2H])([2H])N1CCC2(CC1)C(=O)Nc1ccc(Cl)cc12` [Compound 426, 5-chloro-1′-[2-({7-oxo-8-[(cis)-3-hydroxy-3-methylcyclobutyl]-5,6,7,8-tetrahydro-1,8-naphthyridin-3-yl}oxy)(1,1,2,2-^2H4)ethyl]-1,2-dihydrospiro[indole-3,4′-piperidin]-2-one], the EC50 [1] is reported as 71 nM and the EC50 [2] is reported as 80.3 nM.

Compound `C[C@]1(O)C[C@@H](n2cc3cc(OCCN4CCC5(CC4)C(=O)Nc4ccc(Cl)cc45)cc(C(F)(F)F)c3n2)C1` [Compound 427, 5-chloro-1′-[2-({2-[(cis)-3-hydroxy-3-methylcyclobutyl]-7-(trifluoromethyl)-2H-indazol-5-yl}oxy)ethyl]-1,2-dihydrospiro[indole-3,4′-piperidin]-2-one] has an EC50 [1] of 15.6 nM and an EC50 [2] of 35.8 nM.

Compound `C[C@]1(O)C[C@@H](n2cc3cc(OCCN4CCC5(CC4)C(=O)Nc4ccc(C#N)cc45)cc(C(F)(F)F)c3n2)C1` [Compound 428, 2-oxo-1′-[2-({2-[(cis)-3-hydroxy-3-methylcyclobutyl]-7-(trifluoromethyl)-2H-indazol-5-yl}oxy)ethyl]-1,2-dihydrospiro[indole-3,4′-piperidine]-5-carbonitrile] has an EC50 [1] of 63.3 nM and an EC50 [2] of 89.6 nM.

Compound `C[C@]1(O)C[C@@H](n2nnc3cc(OCCN4CCC5(CC4)C(=O)Nc4ccc(C#N)cc45)cc(C(F)(F)F)c32)C1` [Compound 435, 2-oxo-1′-[2-({1-[(cis)-3-hydroxy-3-methylcyclobutyl]-7-(trifluoromethyl)-1H-1,2,3-benzotriazol-5-yl}oxy)ethyl]-1,2-dihydrospiro[indole-3,4′-piperidine]-5-carbonitrile] has an EC50 [1] of 27.1 nM and an EC50 [2] of 38.4 nM.

Compound `C[C@]1(O)C[C@@H](n2cnc3cc(OCCN4CCC5(CC4)C(=O)Nc4ccc(Cl)cc45)cc(C#N)c32)C1` [Compound 439, 5-(2-{5-chloro-2-oxo-1,2-dihydrospiro[indole-3,4′-piperidin]-1′-yl}ethoxy)-1-[(cis)-3-hydroxy-3-methylcyclobutyl]-1H-1,3-benzodiazole-7-carbonitrile] has an EC50 [1] of 50.5 nM and an EC50 [2] of 45.5 nM.

`C[C@]1(O)C[C@@H](n2nnc3cc(OCCN4CCC5(CC4)C(=O)Nc4ccc(Cl)cc45)cnc32)C1` [Compound 440, 5-chloro-1′-[2-({3-[(cis)-3-hydroxy-3-methylcyclobutyl]-3H-[1,2,3]triazolo[4,5-b]pyridin-6-yl}oxy)ethyl]-1,2-dihydrospiro[indole-3,4′-piperidin]-2-one] was tested, and the EC50 [1] was 160 nM and the EC50 [2] was 139 nM.
